Experimental findings from PubChem BioAssay (NCI) are described below.

Among the test systems are HS 578T breast; T-47D breast; PC-3 prostate; SF-295 CNS; MALME-3M melanoma; SK-MEL-28 melanoma; UACC-257 melanoma; OVCAR-8 ovarian.
Experiment in all cases: DTP human tumour cell line panel, 48 h

Structures are written as SMILES.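 Interpolation was linear, between the two tested concentrations surrounding the appropriate level; five concentrations were tested over 48 hours in 96-well plates. GI50 is the concentration that inhibits growth by half. The concentration for full growth arrest is given as TGI.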 A value given as a limit tells only on which side of the number the result lay.

The GI50 is the concentration that inhibits growth by half. A word on the TGI: it is the concentration giving total growth inhibition.

As for `CC1=C[C@H]2c3c(c(O)c(O)c4oc5c(C)cccc5c(=O)c34)[C@H](c3cc(O)c(O)c4oc5c(C)cccc5c(=O)c34)[C@H]2C(C)(C)C1`, the GI50 is 1.93 µM in the assay with HS 578T breast; 2.51 µM in the assay on T-47D breast; 1.51 µM with PC-3 prostate; 1 µM with SF-295 CNS; 2.43 µM with MALME-3M melanoma; 1.6 µM with SK-MEL-28 melanoma. Further, the GI50 in the assay with UACC-257 melanoma is 2.54 µM; in the assay on OVCAR-8 ovarian, 1.7 µM. The TGI was found to be 9.19 µM with HS 578T breast; 14.1 µM in the assay with T-47D breast; 10.2 µM in the assay on PC-3 prostate; 2.84 µM in the assay on SF-295 CNS; 10.7 µM in the assay on MALME-3M melanoma; 4.18 µM in the assay with SK-MEL-28 melanoma. The TGI in the assay on UACC-257 melanoma came out at 8.34 µM; with OVCAR-8 ovarian, 17.4 µM.
As to `CC(C)=CCC[C@H](C)[C@@H]1CC[C@]2(C)C3CC[C@]4(OC4(C)C)C(CCCO)[C@]3(C)CC[C@@]12C` (stereo partly drawn), the GI50 with HS 578T breast was 24.4 µM; with T-47D breast it was 17.4 µM; in the assay on PC-3 prostate, 18.2 µM; in the assay with SF-295 CNS, 27.9 µM; with MALME-3M melanoma, 27.3 µM; in the assay on SK-MEL-28 melanoma, 23.9 µM. For the same compound, the values for the GI50 with UACC-257 melanoma and in the assay on OVCAR-8 ovarian were 24.1 µM and 37.7 µM, respectively. For the same compound, the TGI in the assay with HS 578T breast is 58.5 µM; in the assay with T-47D breast, 45.6 µM; in the assay with PC-3 prostate it was 41.1 µM; with SF-295 CNS, 63.3 µM; with MALME-3M melanoma, 54.6 µM; with SK-MEL-28 melanoma, 58.5 µM. Also, the TGI in the assay on UACC-257 melanoma is 59.9 µM; in the assay with OVCAR-8 ovarian, greater than 100 µM.
`COc1cc(O)c2c(O)c3c(c4c2c1[C@]1(C4)C(C)=CCCC1(C)C)[C@H](O)[C@@]1(O)CC(=O)C(C(N)=O)=C(O)[C@@]1(O)C3=O`: the TGI turned out to be 2.25 µM in the assay with HS 578T breast; 1.81 µM with T-47D breast; 0.834 µM with PC-3 prostate; 1.07 µM in the assay with SF-295 CNS; 0.675 µM in the assay with MALME-3M melanoma; 2.15 µM with SK-MEL-28 melanoma. The values for the TGI in the assay on UACC-257 melanoma and in the assay on OVCAR-8 ovarian were 0.931 µM and 1.73 µM, respectively.
Take `COc1cc2c3c(n(CCCCOC(=O)C(F)(F)F)c(=O)c2cc1OC)-c1cc2c(cc1C3=O)OCO2`: the GI50 is greater than 93.1 µM with HS 578T breast; greater than 100 µM in the assay on T-47D breast; greater than 100 µM in the assay with PC-3 prostate; greater than 41.7 µM with SF-295 CNS; greater than 100 µM with MALME-3M melanoma; greater than 100 µM with SK-MEL-28 melanoma. Besides, the figures for the GI50 with UACC-257 melanoma and with OVCAR-8 ovarian were greater than 100 µM and greater than 52.6 µM, respectively. Besides, the TGI in the assay on HS 578T breast, with T-47D breast, in the assay on PC-3 prostate, in the assay on SF-295 CNS, with MALME-3M melanoma and in the assay with SK-MEL-28 melanoma was greater than 100 µM throughout. Besides, the TGI in the assay with UACC-257 melanoma and in the assay with OVCAR-8 ovarian was greater than 100 µM in each case.
As to `COc1cc(-c2nc(Nc3nc4ccccc4[nH]3)nc(N)c2C#N)cc(OC)c1OC`, the GI50 in the assay on HS 578T breast was 0.33 µM; in the assay on T-47D breast, 4.27 µM; in the assay with PC-3 prostate, 1.65 µM; with SF-295 CNS it was 0.191 µM; in the assay on MALME-3M melanoma it was 21.7 µM; with SK-MEL-28 melanoma, 19.1 µM. Further, the GI50 in the assay on UACC-257 melanoma is greater than 100 µM; in the assay with OVCAR-8 ovarian, 28.9 µM. Further, the TGI in the assay on HS 578T breast was greater than 100 µM; in the assay on T-47D breast, 52.8 µM; with PC-3 prostate, greater than 93.3 µM; in the assay with MALME-3M melanoma it was greater than 80.1 µM; in the assay with SK-MEL-28 melanoma, greater than 100 µM; in the assay with UACC-257 melanoma, greater than 100 µM. In the assay on OVCAR-8 ovarian, this compound gave a TGI greater than 100 µM.
Consider `Cn1cncc1[C@@](N)(c1ccc(Cl)cc1)c1ccc2c(c1)c(-c1cccc(Cl)c1)cc(=O)n2C`, for which the GI50 is 2.77 µM in the assay with HS 578T breast; 2.57 µM with T-47D breast; 1.47 µM in the assay on PC-3 prostate; 0.534 µM in the assay on SF-295 CNS; 0.901 µM with MALME-3M melanoma; 2.8 µM in the assay on SK-MEL-28 melanoma. The GI50 in the assay on UACC-257 melanoma is 1.37 µM; with OVCAR-8 ovarian, 2.78 µM. The TGI with HS 578T breast amounted to 15.5 µM; in the assay on T-47D breast, 17.2 µM; in the assay on PC-3 prostate it was 7.99 µM; in the assay on SF-295 CNS, 6.35 µM; in the assay on MALME-3M melanoma, 12.1 µM; with SK-MEL-28 melanoma it was 14.7 µM. In addition, the TGI in the assay with UACC-257 melanoma stood at 12.4 µM; with OVCAR-8 ovarian it was 14.8 µM.
On to `COc1ccc2c(c1)C(=O)/C(=C/c1cccc(OCC(=O)Nc3nc4c(s3)CCCC4)c1)O2`, for which the GI50 in the assay on HS 578T breast is 2.28 µM; in the assay with T-47D breast, 1.93 µM; in the assay on PC-3 prostate, 0.285 µM; in the assay on SF-295 CNS, 3.7 µM; in the assay with MALME-3M melanoma, 0.8 µM; in the assay on SK-MEL-28 melanoma it was 1.58 µM. Moreover, the results for the GI50 with UACC-257 melanoma and in the assay on OVCAR-8 ovarian were 11.2 µM and 1.3 µM, respectively. The TGI with HS 578T breast worked out at 10.1 µM; with T-47D breast, 4.34 µM; in the assay with PC-3 prostate, 1.01 µM; in the assay with SF-295 CNS, 15.8 µM; in the assay on MALME-3M melanoma it was 2.86 µM; with SK-MEL-28 melanoma, 3.22 µM. The results for the concentration for total growth inhibition (TGI) in the assay on UACC-257 melanoma and with OVCAR-8 ovarian were 24.4 µM and 8.71 µM, respectively.
For `Cn1cc(C2=C(c3cccc4ccccc34)C(=O)NC2=O)c2ccccc21`, the GI50 is 6.69 µM in the assay on HS 578T breast; 6.32 µM with T-47D breast; 7.51 µM in the assay on PC-3 prostate; 8.26 µM with SF-295 CNS; 9.45 µM in the assay with MALME-3M melanoma; 8.91 µM with SK-MEL-28 melanoma. Moreover, the results for the GI50 in the assay on UACC-257 melanoma and in the assay on OVCAR-8 ovarian were 12.1 µM and 7.17 µM, respectively. The TGI in the assay on HS 578T breast was greater than 24 µM; in the assay on T-47D breast it was 24.5 µM; in the assay with PC-3 prostate, greater than 25 µM; in the assay on SF-295 CNS it was greater than 23.1 µM; in the assay on MALME-3M melanoma it was 24.2 µM; in the assay on SK-MEL-28 melanoma it was greater than 25 µM. Besides, the TGI in the assay with UACC-257 melanoma was greater than 25 µM; with OVCAR-8 ovarian, 19 µM.
For `COc1cccc(C2c3cc4c(cc3OC(C)(O)C2C)OCO4)c1O` (stereo not drawn), the TGI was 9.94 µM with HS 578T breast; 13.1 µM in the assay on T-47D breast; greater than 100 µM in the assay on PC-3 prostate; 14.1 µM in the assay on SF-295 CNS; 56.3 µM in the assay on MALME-3M melanoma; greater than 100 µM in the assay with SK-MEL-28 melanoma. Also, the TGI in the assay on UACC-257 melanoma is 47.1 µM; in the assay with OVCAR-8 ovarian it was 40.9 µM.
Regarding `O=C(Nc1ccccc1O)c1cccc(NC2=C(Cl)C(=O)N(Cc3ccccc3)C2=O)c1`, the GI50 is 5.28 µM in the assay on HS 578T breast; 8.06 µM with T-47D breast; 13.7 µM in the assay on PC-3 prostate; 4.46 µM with SF-295 CNS; 0.488 µM in the assay with MALME-3M melanoma; 7.23 µM in the assay with SK-MEL-28 melanoma. Moreover, the GI50 in the assay with UACC-257 melanoma is 4.44 µM; in the assay on OVCAR-8 ovarian, 2.06 µM. Besides, the TGI in the assay with HS 578T breast is 17.8 µM; with T-47D breast, 28.6 µM; in the assay with PC-3 prostate it was 26.6 µM; in the assay with SF-295 CNS, 12.5 µM; with MALME-3M melanoma, 9.19 µM; in the assay with SK-MEL-28 melanoma, 20.5 µM. Moreover, the results for the TGI in the assay on UACC-257 melanoma and with OVCAR-8 ovarian were 16.6 µM and 4.7 µM, respectively.
